Converted amounts (≈) assume the structure as drawn. “Also recorded” adds a separate entry of the source. Read-outs that look alike come from different tables or passages of the source.
Assays:
Type in all cases: physicochemical
[1] = Crystal form transformation on heating, cooling or drying
Description: The obtained sample was determined to be a crystal form E of maleate of the multi-substituted benzene ring compound of formula II by X-ray powder diffraction.

[2] = Hygroscopicity by dynamic vapor sorption (DVS); conditions: for Crystal form after DVS test: XRPD after DVS 0% RH-95% RH-0% RH, 25° C.
Description: Dynamic vapor sorption (DVS) curves were acquired on a DVS Intrinsic in Surface Measurement Systems (SMS). The relative humidity at 25° C. was corrected with the deliquescence points of LiCl, Mg(NO3)2 and KCl.
After the mass change rate over time was less than 0.002%, the moisture absorption characteristics of the samples when the humidity changed from 0% RH to 95% RH were tested, as well as the moisture desorption characteristics of the samples when the humidity changed from 0% RH to 95% RH to 0% RH were tested, and the humidity change step was 10% RH. The value of the mass change rate dm/dt less than 0.002% was considered as balance equilibration, the mass change rate within 10 min less than 0.002%/min was considered as the equilibration standard during the testing process, and the maximum equilibration time was 3 h. The isothermal moisture sorption/desorption characteristics under this test condition were determined and XRPD test was performed on the samples after the DVS test.

[3] = Dynamic solubility in SGF, FaSSIF, FeSSIF and water at 37° C.; conditions: thermodynamic from solid, sampling at 1, 2, 4 and 24 h, time point of the value not stated
Description: (§1) The purity and solubility of the samples in the test were tested by Waters ultra performance liquid chromatograph, and the conditions are shown in Table 6:
In the test, 45 mg of the solid and 4.5 mL of the vehicle were mixed in a 5 mL centrifuge tube, then the centrifuge tube was sealed and fixed on a rotating disk at a rotating speed of 40 rpm, and the rotating disk was placed in a 37° C. incubator. Sampling was performed at four time points of 1, 2, 4 and 24 h on equilibration, followed by filtration. The filtrate was separated at each sampling time point to test the concentration and pH, and the solid was tested for crystal form.

[4] = Suspension competition experiments on anhydrous crystal forms A and B of maleate (XRPD); conditions: for Results (crystal form by XRPD after suspension competition): 3 days
Description: Suspention competition experiments on anhydrous crystal forms A and B of maleate were conducted as follows: Four 5-mL vials were taken, IPA (2 mL) and IPAc (2 mL) were added to each vial, and excessive crystal form B of maleate was added. The mixtures were stirred at room temperature/50° C. for 24 h, and then filtered to obtain saturated solutions of the maleate in IPA and IPAc. About 10 mg of a crystal form A/B of maleate was added to each saturated solution, the mixtures were suspended and stirred at room temperature/50° C. for 3 days, and then subjected to the XRPD test.

[5] = Suspension competition experiments on crystal form A and hydrate crystal forms C and D of maleate at different water activities (XRPD); conditions: for Result (crystal form by XRPD after suspension competition): H2O
Description: The mixtures were stirred at room temperature for 24 h, and then filtered to obtain saturated solutions. About 10 mg of a crystal form A/C/D of maleate was added to each saturated solution, the mixtures were suspended and stirred at room temperature for 2 days, and then subjected to the XRPD test. Two 5-mL vials were taken, water (2 mL) was added to each vial, and excessive crystal form B of maleate was added. The mixtures were stirred at 50° C./80° C. for 20 h/2 h, and then filtered to obtain saturated solutions. About 10 mg of the crystal form A/C/D of maleate was added to each saturated solution, and the mixtures were suspended and stirred at 50° C./80° C. for 1 day/3.5 h, and then subjected to the XRPD test.

[6] = as above; conditions: room temperature, 3.5 h
[7] = Physical and chemical stability in open vials (HPLC purity, XRPD); conditions: for Crystal form change: XRPD; for Stability sample purity (area percentage): initial purity 98.86
Description: as §1
The solid samples placed under different conditions were tested for purity by HPLC to assess the chemical stability and for crystal form by XRPD to assess the physical stability.

[8] = Fluidity (angle of repose of a single API); conditions: D90 controlled at 200 μm
[9] = FaSSIF, FaSSIF, read-out: Dynamic solubility in FaSSIF
[10] = FeSSIF, FeSSIF, read-out: Dynamic solubility in FeSSIF
[11] = SGF, simulated gastric fluid, SGF, read-out: Dynamic solubility in SGF
[12] = water, water, read-out: Dynamic solubility in water
[13] = open vial, 25° C./60% RH, one week
[14] = open vial, 40° C./75% RH, one week

SMILES: CCN(c1cc(O[C@H]2C[C@H](N3CCCCC3)C2)cc(C(=O)NCc2c(C)cc(C)[nH]c2=O)c1C)C1CCOCC1.O=C(O)/C=C\C(=O)O [Crystal form E of maleate]
- Crystal form transformation after cooling to room temperature ([1]; form obtained only at high temperature, then cooled to room temperature): retransformed into the crystal form A of maleate

SMILES: CCN(c1cc(O[C@H]2C[C@H](N3CCCCC3)C2)cc(C(=O)NCc2c(C)cc(C)[nH]c2=O)c1C)C1CCOCC1 [Free crystal form D]
- DVS vapor sorption (25° C./80% RH, %) [2]: 1.3%
- solubility [3, 9]: 420 µg/mL (≈ 763 µM)
- solubility [3, 10]: > 7350 µg/mL
- solubility [3, 11]: 6980 µg/mL (≈ 12700 µM)
- solubility [3, 12]: 16 µg/mL (≈ 29.1 µM)

SMILES: CCN(c1cc(O[C@H]2C[C@H](N3CCCCC3)C2)cc(C(=O)NCc2c(C)cc(C)[nH]c2=O)c1C)C1CCOCC1.O=C(O)/C=C\C(=O)O [Crystal form A/B of maleate]
- Results (crystal form by XRPD after suspension competition) ([4]; IPA, 50° C.): Crystal form A of maleate
- Results (crystal form by XRPD after suspension competition) ([4]; IPA, room temperature): Crystal form A of maleate
- Results (crystal form by XRPD after suspension competition) ([4]; IPAc, 50° C.): Crystal form A of maleate
- Results (crystal form by XRPD after suspension competition) ([4]; IPAc, room temperature): Crystal form A of maleate

SMILES: CCN(c1cc(O[C@H]2C[C@H](N3CCCCC3)C2)cc(C(=O)NCc2c(C)cc(C)[nH]c2=O)c1C)C1CCOCC1.O=C(O)/C=C\C(=O)O [Crystal form A/C/D of maleate]
- Result (crystal form by XRPD after suspension competition) ([5]; 50° C., 1 day): Crystal form C of maleate
- Result (crystal form by XRPD after suspension competition) ([5]; 80° C., 3.5 h): Crystal form C of maleate
- Result (crystal form by XRPD after suspension competition) ([6]; EtOH): Crystal form A of maleate
- Result (crystal form by XRPD after suspension competition) ([6]; EtOH/H2O (70:30, aw = 0.8)): Crystal form C of maleate
- Result (crystal form by XRPD after suspension competition) ([6]; EtOH/H2O (82:18, aw = 0.6)): Crystal form C of maleate
- Result (crystal form by XRPD after suspension competition) ([6]; EtOH/H2O (91:9, aw = 0.4)): Crystal form C of maleate
- Result (crystal form by XRPD after suspension competition) ([6]; EtOH/H2O (96:4, aw = 0.2)): Crystal form A of maleate
- Result (crystal form by XRPD after suspension competition) ([6]; H2O): Crystal form C of maleate

SMILES: Br.CCN(c1cc(O[C@H]2C[C@H](N3CCCCC3)C2)cc(C(=O)NCc2c(C)cc(C)[nH]c2=O)c1C)C1CCOCC1 [Crystal form A of hydrobromide]
- DVS vapor sorption (25° C./80% RH, %) [2]: 5.2%
- solubility [3, 9]: 1390 µg/mL
- solubility [3, 10]: 5330 µg/mL
- solubility [3, 12]: 4260 µg/mL

SMILES: CCN(c1cc(O[C@H]2C[C@H](N3CCCCC3)C2)cc(C(=O)NCc2c(C)cc(C)[nH]c2=O)c1C)C1CCOCC1.O=C(O)/C=C\C(=O)O [Crystal form A of maleate]
- Relative stability of crystal forms A and B of maleate ([4]; room temperature/50° C.): more stable than the crystal form B
- Stability ranking among the 5 crystal forms of maleate ([5]; conclusion from the examples and suspension competition experiments): most stable among the 5 crystal forms of maleate
- Initial purity (area percentage) ([7]; before storage): 98.86 area percentage
- Crystal form change [7, 13]: Unchanged
- Stability sample purity (area percentage) [7, 13]: 98.79 area percentage
- Crystal form change [7, 14]: Unchanged
- Stability sample purity (area percentage) [7, 14]: 98.79 area percentage
- Physical and chemical stability under three test conditions ([7]; open vial, 60° C. one day, 25° C./60% RH and 40° C./75% RH one week): did not undergo crystal form transformation and chemical purity decrease; also recorded: no crystal form transformation and chemical purity decrease
- Crystal form change ([7]; open vial, 60° C., 24 h): Unchanged
- Stability sample purity (area percentage) ([7]; open vial, 60° C., 24 h): 98.79 area percentage
- DVS vapor sorption (25° C./80% RH, %) [2]: 0.4%
- Crystal form after DVS test [2]: Unchanged
- Crystal form after DVS test ([2]; listed as crystal form A of maleate): crystal form transformation did not occur
- solubility [3, 9]: 4150 µg/mL
- solubility [3, 10]: > 7350 µg/mL
- solubility [3, 11]: ≥ 6000 µg/mL
- solubility [3, 12]: 6990 µg/mL
- Angle of repose of a single API [8]: about 40 °
- Angle of repose of a single API ([8]; as printed in b231): about 400

SMILES: CCN(c1cc(O[C@H]2C[C@H](N3CCCCC3)C2)cc(C(=O)NCc2c(C)cc(C)[nH]c2=O)c1C)C1CCOCC1.O=C(O)CCC(=O)O [Crystal form A of succinate]
- DVS vapor sorption (25° C./80% RH, %) [2]: 2.1%
- solubility [3, 9]: 5390 µg/mL
- solubility [3, 10]: > 7350 µg/mL
- solubility [3, 11]: ≥ 6000 µg/mL
- solubility [3, 12]: > 8440 µg/mL

SMILES: CCN(c1cc(O[C@H]2C[C@H](N3CCCCC3)C2)cc(C(=O)NCc2c(C)cc(C)[nH]c2=O)c1C)C1CCOCC1.O=C(O)/C=C\C(=O)O [Crystal form C of maleate]
- Crystal form transformation by suspending and stirring ([5]; ethanol solution with a water activity of 0.2 or absolute ethanol, room temperature): transformed into the crystal form A
- Crystal form transformation after drying ([1]; dried at 170° C.): transformed into the crystal form A
